Measured values published in US9955691B2, “Macrocyclic picolinamides as fungicides” (DOW AGROSCIENCES LLC, priority 2014, dated 2018).
Read-outs that look alike come from different tables or passages of the source.

Legend:
[1] = system: Mycosphaerella graminicola; Anamorph: Septoria tritici; experiment: Fungicidal activity: Leaf Blotch of Wheat (SEPTTR); assay type: in vivo; conditions: Zymoseptoria tritici; for pest or weed control at 121.5 g/ha: Low Volume (121.5 g/H)
In short: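 Compounds were dissolved in acetone, diluted with nine volumes of water containing 110 ppm Triton X-100, and sprayed to run-off on first-leaf Yuma wheat seedlings inoculated with Septoria tritici spores before or after treatment. Plants were held in a dew chamber, then a 20° C. greenhouse. Percent control was derived from disease severity relative to untreated plants.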

Puccinia triticina = experiment: Fungicidal activity: Wheat Brown Rust (PUCCRT); assay type: in vivo; conditions: for pest or weed control at 100 µg/mL: High Volume (100 ppm); for pest or weed control at 121.5 g/ha: Low Volume (121.5 g/H)
In short: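 Wheat seedlings (Yuma, first leaf) sprayed to run-off with compound in acetone/water with Triton X-100, inoculated with Puccinia triticina before or after treatment. Held overnight in dark dew at 22° C, then greenhouse at 24° C; percent disease control from severity versus untreated plants.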

[2] = 24 h, 1 Day Protectant, read-out: PUCCRT 1 DP disease control
[3] = 72 h, 3 Day Curative, read-out: PUCCRT 3 DC disease control
[4] = 24 h, High Volume (100 ppm), 1 Day Protectant, wheat leaf blotch, read-out: SEPTTR 1 DP disease control
[5] = 72 h, High Volume (100 ppm), 3 Day Curative, wheat leaf blotch, read-out: SEPTTR 3 DC disease control

SMILES	melting point	other results
C[C@H]1OC(=O)[C@@H](N)COC[C@H](Cc2ccccc2)[C@H]1Cc1ccccc1.Cl	206 to 211 °C	–
C[C@@H]1OC(=O)[C@@H](N)COC[C@H](CCc2ccccc2)[C@H]1CCc1ccccc1.Cl	184 °C (dec.)	–
C=C[C@@H]1[C@@H](Cc2ccccc2)COC[C@H](N)C(=O)O[C@H]1C.Cl	208 °C (dec.)	–
C[C@@H]1OC(=O)[C@@H](N)COC[C@H](CC2CCCCC2)[C@H]1CC1CCCCC1.Cl	191 to 197 °C (dec.)	–
C=C(C)CCC[C@@H]1[C@@H](Cc2ccccc2)COC[C@H](N)C(=O)O[C@H]1C.Cl	184 to 187 °C (dec.)	–
CC(C)COC[C@@H]1[C@@H](Cc2ccccc2)COC[C@H](N)C(=O)O[C@H]1C.Cl	196 to 199 °C	–
COc1cccc(C[C@H]2COC[C@H](N)C(=O)O[C@@H](C)[C@@H]2Cc2cccc(OC)c2)c1.Cl	181 to 186 °C (dec.)	–
C[C@@H]1OC(=O)[C@@H](N)COC[C@H](Cc2ccccc2)[C@H]1Cc1ccccc1.Cl	196 to 202 °C	–
C[C@@H]1OC(=O)[C@@H](N)COC[C@H](CC2CCCC2)[C@H]1CC1CCCC1.Cl	164 to 167 °C	–
C[C@@H]1OC(=O)[C@@H](N)COC[C@H](Cc2ccc(Cl)cc2)[C@H]1Cc1ccc(OC(F)(F)F)cc1.Cl	144 to 148 °C	–
C[C@@H]1OC(=O)[C@@H](N)COC[C@H](Cc2ccc(C(F)(F)F)cc2)[C@H]1Cc1ccc(OC(F)(F)F)cc1.Cl	172 to 175 °C	–
C[C@@H]1OC(=O)[C@@H](N)COC[C@H](CCCc2ccccc2)[C@H]1CCc1ccccc1.Cl	147 to 151 °C	–
C[C@@H]1OC(=O)[C@@H](N)COC[C@H](CC2CC2)[C@H]1Cc1ccccc1.Cl	189 to 195 °C	–
CC(C)C[C@@H]1[C@@H](Cc2ccc(C(F)(F)F)cc2)COC[C@H](N)C(=O)O[C@H]1C.Cl	163 to 168 °C	–
C[C@@H]1OC(=O)[C@@H](N)COC[C@H](Cc2ccc(Cl)cc2)[C@H]1C1CCCC1.Cl	200 to 203 °C	–
CC(C)CC[C@H]1COC[C@H](N)C(=O)O[C@@H](C)[C@@H]1C1CCCC1.Cl	149 to 153 °C	–
C[C@@H]1OC(=O)[C@@H](N)COC[C@H](Cc2ccccc2)[C@H]1COc1ccccc1.Cl	209 to 214 °C	–
CCC[C@H]1COC[C@H](N)C(=O)O[C@@H](C)[C@@H]1Cc1ccc(F)cc1.Cl	184 to 187 °C	–
COc1ccnc(C(=O)N[C@H]2COC[C@H](Cc3ccccc3)[C@@H](Cc3ccccc3)[C@H](C)OC2=O)c1O [Cmpd. 112, N-((3S,7R,8R,9S)-7,8-dibenzyl-9-methyl-2-oxo-1,5-dioxonan-3-yl)-3-hydroxy-4-methoxypicolinamide]	69 to 72 °C	pest or weed control at 100 µg/mL ([1]; 24 h, read-out: SEPTTR 1 DP disease control): < 70%; pest or weed control at 100 µg/mL ([1]; 72 h, read-out: SEPTTR 3 DC disease control): < 70%; pest or weed control at 100 µg/mL (Puccinia triticina; [2]): < 70%; pest or weed control at 100 µg/mL (Puccinia triticina; [3]): < 70%
C[C@@H]1OC(=O)[C@@H](NC(=O)OC(C)(C)C)COC[C@H](Cc2ccccc2)[C@H]1Cc1ccccc1 [Cmpd. 203, tert-butyl ((3S,7R,8R,9S)-7,8-dibenzyl-9-methyl-2-oxo-1,5-dioxonan-3-yl)carbamate]	41 to 45 °C	–
COc1ccnc(C(=O)N[C@H]2COC[C@H](CCc3ccccc3)[C@@H](CCc3ccccc3)[C@H](C)OC2=O)c1OCOC(C)=O [compound 4]	42 to 47 °C	pest or weed control at 100 µg/mL [1, 4]: > 70%; pest or weed control at 121.5 g/ha ([1]; 24 h, 1 Day Protectant, wheat leaf blotch, read-out: SEPTTR 1 DP disease control): > 70%; pest or weed control at 100 µg/mL [1, 5]: > 70%; pest or weed control at 121.5 g/ha ([1]; 72 h, 3 Day Curative, wheat leaf blotch, read-out: SEPTTR 3 DC disease control): > 70%; pest or weed control at 100 µg/mL (Puccinia triticina; [2]): > 70%; pest or weed control at 121.5 g/ha (Puccinia triticina; [2]): > 70%; pest or weed control at 100 µg/mL (Puccinia triticina; [3]): > 70%; pest or weed control at 121.5 g/ha (Puccinia triticina; [3]): < 70%
C=C[C@@H]1[C@@H](Cc2ccccc2)COC[C@H](NC(=O)c2nccc(OC)c2OCOC(C)=O)C(=O)O[C@H]1C [compound 9]	42 to 48 °C	pest or weed control at 100 µg/mL [1, 4]: > 70%; pest or weed control at 100 µg/mL [1, 5]: > 70%; pest or weed control at 100 µg/mL (Puccinia triticina; [2]): > 70%; pest or weed control at 100 µg/mL (Puccinia triticina; [3]): > 70%
